What was measured:
[1] = tested on: patients with walking difficulties, proctoptosia, backaches, limb pains; assay: Tablets of Example 4 administered once a day to aged patients with muscle disorders; format: in vivo, human; conditions: single regular dose of drugs admixed with one of scymnol, isoflavone, and cholic acid
Excerpt: In Western medicine, it has been understood that proctoptosia and leg, lumbus and arm aches are attributable only to hematogenous disorders and resultant inflammation at local sites. […] Thus, it can be understood that these disorders are attributed to insufficient communication of brain commands to local sites and therefore the hematogenous disorders and onset of inflammation are problems caused by abnormal motions of muscles due to incomplete communication of brain commands.

adrenaline secretion = assay: Animal experiments using mice: secretomotory action on adrenaline (blood glucose levels); format: in vivo
Excerpt: No studies have been conducted on the efficacy of curcumin, zingerone, or shogaol on the stimulation of adrenaline secretion.

SMILES | effect on proctoptosia and leg, lumbus and arm aches [1] | blood glucose levels (secretomotory action on adrenaline) (adrenaline secretion)
C[C@H](CCC(=O)O)[C@H]1CC[C@H]2[C@@H]3[C@H](O)C[C@@H]4C[C@H](O)CC[C@]4(C)[C@H]3C[C@H](O)[C@]12C [cholic acid] | not significantly ameliorated | 
COc1cc(/C=C/C(=O)/C=C(O)/C=C/c2ccc(O)c(OC)c2)ccc1O [curcumin] |  | remarkably elevated
C[C@H](CC[C@@H](O)C(CO)CO)C1CCC2C3C(C[C@H](O)[C@@]21C)[C@@]1(C)CC[C@@H](O)CC1C[C@H]3O (some centres unmarked) [scymnol, Scymnol] | not significantly ameliorated | 
CCCCC/C=C/C(=O)CCc1ccc(O)c(OC)c1 [shogaol, (6)-shogaol] |  | remarkably elevated
COc1cc(CCC(C)=O)ccc1O [zingerone] |  | remarkably elevated
